Data set [1] is described as follows: chromatographic Log D at pH 7.5. Format: physicochemical.
Source text: The chromatographic lipophilicities of the nine PROTACs were therefore determined to understand to what extent the cell permeability differences may originate from lipophilicity.
Another data set can be described thus: in vitro. The method, then:
Stock solutions of the controls and of 1–9 were prepared in DMSO at a concentration of 10 mM, then they were further diluted with PBS (pH 7.4) to a final concentration of 10 μM. Five μL of a lecithin/dodecane mixture and 300 μL of PBS (pH 7.4) solution were pipetted into each acceptor plate well, followed by addition of 300 μL of the solutions of the controls or 1–9 to each well of the donor plate. The acceptor plate was placed into the donor plate followed by incubation at 25 °C, 60 rpm for 16 h.[31] After incubation, aliquots of 50 μL from each well of the acceptor and donor plates are transferred into a 96-well plate and 200 μL of acetonitrile was added to each well. Samples were centrifuged for 20 min and compound concentrations were determined by LC/MS/MS (LC system: Shimadzu; Triple Quad).

The nature of a further data set: physchem. To be noted: PBS, pH 6.5, aqueous buffer, kinetic from dmso stock.
The next data set deals with VHL (Homo sapiens, UniProt P40337). In words: cell-based VHL binding assay (NanoBRET, live mode). To be noted: classified by in cellulo/in vitro ratio. The method, then: IC50 values were calculated using a four-parameter fit, with a commercial software package (Genedata Screener, Switzerland).
VHL, sequence (P40337 whole entry): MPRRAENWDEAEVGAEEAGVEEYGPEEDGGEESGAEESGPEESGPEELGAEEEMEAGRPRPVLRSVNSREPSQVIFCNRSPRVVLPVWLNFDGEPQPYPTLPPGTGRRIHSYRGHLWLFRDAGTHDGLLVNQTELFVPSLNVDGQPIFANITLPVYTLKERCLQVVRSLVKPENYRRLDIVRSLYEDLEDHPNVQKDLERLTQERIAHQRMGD
On the technique in general: In BRET a luciferase serves as donor, and the signal depends on an acceptor being close.

A further data set deals with ERK5. Also noted: method as in PMID 33488971. To be noted: previously reported PROTAC; read-out: IC50 for binding to ERK5; cited from earlier work.
For data set [2] the following is noted: PBS at pH 6.5; cited from earlier work.
Data set [3] is described as follows: pKa determined by photometry. Format: physicochemical. As for the experimental part: Both compounds were therefore treated as being mainly uncharged in the subsequent analyses, and the uncharged form of 7 was used in the NMR studies of its conformational ensemble in chloroform.
The pKa of 7 was determined by photometry as reported previously.[57]

The mark [4] stands for this setting: pH 7.5, chromatographic lipophilicity, pH 7.5, read-out: LogD (pH 7.5).
The mark [5] stands for this setting: pH 7.5, chromatographic, supplement, read-out: LogD, pH 7.50.

≈ marks a conversion by molar mass, not a printed value. Where two headings read alike, the source gives them in different places.

Source text for physchem: Before determining the cell permeability of PROTACs 1–8 we assessed their aqueous solubility.

Take `Cc1ncsc1-c1ccc(CNC(=O)[C@@H]2C[C@@H](O)CN2C(=O)[C@@H](NC(=O)Cc2ccc(OCCOc3cnc4c(C5CCN(C(=O)c6ccc(OC(F)(F)F)cc6)CC5)ncnc4c3)cn2)C(C)(C)C)cc1` [PROTAC 6, 3-Methyl-N-[(5-{2-[(4-{1-[4-(trifluoromethoxy)benzoyl]piperidin-4-yl}pyrido[3,2-d]pyrimidin-7-yl)oxy]ethoxy}pyridin-2-yl)acetyl]-L-valyl-(4R)-4-hydroxy-N-[4-(4-methyl-1,3-thiazol-5-yl)benzyl]-L-prolinamide]: the chromatographic logD in data set [1] (setting [4]) was 3. The chromatographic logD in data set [1] (setting [5]) is 2.97. Further, the “PAMPA, mean (LogPe, cm/s)” value in the data set “in vitro” (16 h, 10 μM) is -7,28 cm/s. The “PAMPA Log[Pe (cm/s)]” value in the data set “in vitro” (16 h, 10 μM, pH 7.4) was “–7.28 ± 0.035 cm/s”. Also, in “physchem”, the solubility came to 0.52 µM (≈ 0.525 µg/mL) and the kinetic solubility was below 1 µM.
As for `Cc1ncsc1-c1ccc(CNC(=O)[C@@H]2C[C@@H](O)CN2C(=O)[C@@H](NC(=O)CCOCCOCCOc2cnc3c(C4CCN(C(=O)c5ccc(OC(F)(F)F)cc5)CC4)ncnc3c2)C(C)(C)C)cc1` [PROTAC 2, 3-Methyl-N-[3-(2-{2-[(4-{1-[4-(trifluoromethoxy)benzoyl]piperidin-4-yl}pyrido[3,2-d]pyrimidin-7-yl)oxy]ethoxy}ethoxy)propanoyl]-L-valyl-(4R)-4-hydroxy-N-[4-(4-methyl-1,3-thiazol-5-yl)benzyl]-L-prolinamide], the chromatographic logD in data set [1] (setting [4]) turned out to be 2.9; in data set [1] (setting [5]), 2.89. Moreover, the “higher PAMPA permeability” value in the data set “in vitro” is ~3 orders of magnitude. Further, in the data set “in vitro” (16 h, 10 μM), the “PAMPA, mean (LogPe, cm/s)” value is reported as -5,42 cm/s. The “PAMPA Log[Pe (cm/s)]” value in the data set “in vitro” (16 h, 10 μM, pH 7.4) is “–5.42 ± 0.035 cm/s”. Besides, in the data set “physchem”, the solubility stood at 0.64 µM (≈ 0.634 µg/mL). In “physchem”, this compound gave a kinetic solubility below 1 µM.
Consider `Cc1ncsc1-c1ccc(CNC(=O)[C@@H]2C[C@@H](O)CN2C(=O)[C@@H](NC(=O)COCCOCCNC(=O)COc2cnc3c(C4CCN(C(=O)c5ccc(OC(F)(F)F)cc5)CC4)ncnc3c2)C(C)(C)C)cc1` [PROTAC 9], for which the results for the chromatographic logD in data set [1] (setting [4]) and in data set [1] (setting [5]) were 2.7 and 2.68, respectively. Also, the “cell permeability class (in words)” value at VHL is reported as “high”. The “PAMPA, mean (LogPe, cm/s)” value in the data set “in vitro” (16 h, 10 μM) was -6,3 cm/s. The “PAMPA Log[Pe (cm/s)]” value in the data set “in vitro” (16 h, 10 μM, pH 7.4) was “–6.30 ± 0.074 cm/s”. In addition, in the data set on ERK5, the half-maximal inhibitory concentration (IC50) was 1.23 µM. For the same compound, the kinetic solubility in data set [2] was 6.8 µM (≈ 7.03 µg/mL).
Consider `Cc1ncsc1-c1ccc(CNC(=O)[C@@H]2C[C@@H](O)CN2C(=O)[C@@H](NC(=O)CCCCCCCCOc2cnc3c(C4CCN(C(=O)c5ccc(OC(F)(F)F)cc5)CC4)ncnc3c2)C(C)(C)C)cc1` [PROTAC 1, 3-Methyl-N-{9-[(4-{1-[4-(trifluoromethoxy)benzoyl]piperidin-4-yl}pyrido[3,2-d]pyrimidin-7-yl)oxy]nonanoyl}-L-valyl-(4R)-4-hydroxy-N-[4-(4-methyl-1,3-thiazol-5-yl)benzyl]-L-prolinamide], for which the chromatographic logD is 3.8 in data set [1] (setting [4]) and 3.81 in data set [1] (setting [5]). Also, the “PAMPA, mean (LogPe, cm/s)” value in “in vitro” (16 h, 10 μM) was -8,29 cm/s. Further, the “PAMPA Log[Pe (cm/s)]” value in “in vitro” (16 h, 10 μM, pH 7.4) was “–8.29 ± 0.023 cm/s”. This compound returned a solubility in “physchem” below 0.1 µM. The same compound displayed a kinetic solubility in the data set “physchem” below 1 µM.
Take `Cc1ncsc1-c1ccc(CNC(=O)[C@@H]2C[C@@H](O)CN2C(=O)[C@@H](NC(=O)COCc2cn(CCOc3cnc4c(C5CCN(C(=O)c6ccc(OC(F)(F)F)cc6)CC5)ncnc4c3)nn2)C(C)(C)C)cc1` [PROTAC 4, 3-Methyl-N-{[(1-{2-[(4-{1-[4-(trifluoromethoxy)benzoyl]piperidin-4-yl}pyrido[3,2-d]pyrimidin-7-yl)oxy]ethyl}-1H-1,2,3-triazol-4-yl)methoxy]acetyl}-L-valyl-(4R)-4-hydroxy-N-[4-(4-methyl-1,3-thiazol-5-yl)benzyl]-L-prolinamide]: in data set [1] (setting [4]), the chromatographic logD came to 2.7. The “PAMPA, mean (LogPe, cm/s)” value in “in vitro” (16 h, 10 μM) is given as <-7,94 cm/s. In addition, the “PAMPA Log[Pe (cm/s)]” value in the data set “in vitro” (16 h, 10 μM, pH 7.4) is on record as below −7.94 ± 0.20 cm/s. In the data set “physchem”, this compound showed a solubility of 12.1 µM (≈ 12.3 µg/mL) and a kinetic solubility of 10 to 20 µM (≈ 10.1 to 20.3 µg/mL).
With `Cc1ncsc1-c1ccc(CNC(=O)[C@@H]2C[C@@H](O)CN2C(=O)[C@@H](NC(=O)CCOCCNC(=O)COc2cnc3c(C4CCN(C(=O)c5ccc(OC(F)(F)F)cc5)CC4)ncnc3c2)C(C)(C)C)cc1` [PROTAC 3, 3-Methyl-N-[3-(2-{2-[(4-{1-[4-(trifluoromethoxy)benzoyl]piperidin-4-yl}pyrido[3,2-d]pyrimidin-7-yl)oxy]acetamido}ethoxy)propanoyl]-L-valyl-(4R)-4-hydroxy-N-[4-(4-methyl-1,3-thiazol-5-yl)benzyl]-L-prolinamide], the chromatographic logD in data set [1] (setting [4]) was found to be 2.7; in data set [1] (setting [5]) it was 2.66. In addition, the “PAMPA, mean (LogPe, cm/s)” value in “in vitro” (16 h, 10 μM) is -6,21 cm/s. In the data set “in vitro” (16 h, 10 μM, pH 7.4), the “PAMPA Log[Pe (cm/s)]” value was “–6.21 ± 0.046 cm/s”. In the data set “physchem”, this compound displayed a solubility of 17 µM (≈ 17.1 µg/mL). In the data set “physchem”, this compound displayed a kinetic solubility of 10 to 20 µM (≈ 10 to 20.1 µg/mL).
`Cc1ncsc1-c1ccc(CNC(=O)[C@@H]2C[C@@H](O)CN2C(=O)[C@@H](NC(=O)CN2CCC(CCCOc3cnc4c(C5CCN(C(=O)c6ccc(OC(F)(F)F)cc6)CC5)ncnc4c3)CC2)C(C)(C)C)cc1` [PROTAC 8, 3-Methyl-N-[(4-{3-[(4-{1-[4-(trifluoromethoxy)benzoyl]piperidin-4-yl}pyrido[3,2-d]pyrimidin-7-yl)oxy]propyl}piperidin-1-yl)acetyl]-L-valyl-(4R)-4-hydroxy-N-[4-(4-methyl-1,3-thiazol-5-yl)benzyl]-L-prolinamide]: the chromatographic logD in data set [1] (setting [4]) came to 3.6; in data set [1] (setting [5]), 3.64. The “PAMPA, mean (LogPe, cm/s)” value in the data set “in vitro” (16 h, 10 μM) is given as -6,9 cm/s. In the data set “in vitro” (16 h, 10 μM, pH 7.4), the “PAMPA Log[Pe (cm/s)]” value is recorded as “–6.90 ± 0.061 cm/s”.
On to `CN(Cc1cnc2nc(N)nc(N)c2n1)c1ccc(C(=O)N[C@@H](CCC(=O)O)C(=O)O)cc1` [Methotrexate, reference compound], for which, in “in vitro” (PAMPA, pH 7.4), the apparent permeability (Papp) at 16 h, 10 μM is 0.0427 nm/s.
Take `Cc1ncsc1-c1ccc(CNC(=O)[C@@H]2C[C@@H](O)CN2C(=O)[C@@H](NC(=O)CN(C)CCCCCCOc2cnc3c(C4CCN(C(=O)c5ccc(OC(F)(F)F)cc5)CC4)ncnc3c2)C(C)(C)C)cc1` [PROTAC 7, N-Methyl-N-{6-[(4-{1-[4-(trifluoromethoxy)benzoyl]piperidin-4-yl}pyrido[3,2-d]pyrimidin-7-yl)oxy]hexyl}glycyl-3-methyl-L-valyl-(4R)-4-hydroxy-N-[4-(4-methyl-1,3-thiazol-5-yl)benzyl]-L-prolinamide]: the chromatographic logD in data set [1] (setting [4]) was 3.7. Moreover, in data set [1] (setting [5]), the chromatographic logD was 3.74. In addition, in “in vitro” (16 h, 10 μM), the “PAMPA, mean (LogPe, cm/s)” value was -6,67 cm/s and the “improvement in PAMPA permeability” value worked out at 40 fold. In addition, the “PAMPA Log[Pe (cm/s)]” value in the data set “in vitro” (16 h, 10 μM, pH 7.4) is “–6.67 ± 0.017 cm/s”. The uncharged fraction in data set [3] (at pH 7.4, from determined pKa) was determined as 76%. Moreover, in data set [3] (at physiological pH), the partially charged fraction is recorded as below 25%. For the same compound, the pKa in data set [3] (tertiary amine of linker, photometry) turned out to be 6.9.
As for `Cc1ncsc1-c1ccc(CNC(=O)[C@@H]2C[C@@H](O)CN2C(=O)[C@@H](NC(=O)Cc2ccc(OCCOc3cnc4c(C5CCN(C(=O)c6ccc(OC(F)(F)F)cc6)CC5)ncnc4c3)cc2)C(C)(C)C)cc1` [PROTAC 5, 3-Methyl-N-[(4-{2-[(4-{1-[4-(trifluoromethoxy)benzoyl]piperidin-4-yl}pyrido[3,2-d]pyrimidin-7-yl)oxy]ethoxy}phenyl)acetyl]-L-valyl-(4R)-4-hydroxy-N-[4-(4-methyl-1,3-thiazol-5-yl)benzyl]-L-prolinamide], the chromatographic logD worked out at 3.2 in data set [1] (setting [4]) and 3.25 in data set [1] (setting [5]). For the same compound, in the data set “in vitro” (16 h, 10 μM), the “PAMPA, mean (LogPe, cm/s)” value is <-7,56 cm/s. The “PAMPA Log[Pe (cm/s)]” value in the data set “in vitro” (16 h, 10 μM, pH 7.4) is reported as below −7.56 ± 0.30 cm/s. This compound displayed a solubility in the data set “physchem” of 0.36 µM (≈ 0.363 µg/mL). Besides, the solubility (kinetic) in the data set “physchem” is below 1 µM.

As a reminder, the solubility is the concentration that dissolves in the medium under given conditions. Read a low solubility as little dissolved substance. One may read the kinetic solubility as the concentration staying in solution when a stock, usually in DMSO, is diluted into the medium. What is called IC50 is the point on the concentration scale where inhibition reaches its midpoint. As a reminder, the Papp is the rate of passage across a membrane or cell layer, normalised by area and donor concentration. Higher therefore signals ready permeation. In general, pKa refers to the pH at which an ionisable group is half protonated. A lower pKa goes with a group that gives up its proton readily.

The record behind these values is paper PMC11726670, “Impact of Linker Composition on VHL PROTAC Cell Permeability” (Journal of Medicinal Chemistry, 2024).
